Key:
CHRM2 = target: T1, CHRM2 (Homo sapiens, UniProt P08172); assay: SAFETYscan cAMP CHRM2 Antagonist; format: cell-based
T1 sequence (P08172 1-466): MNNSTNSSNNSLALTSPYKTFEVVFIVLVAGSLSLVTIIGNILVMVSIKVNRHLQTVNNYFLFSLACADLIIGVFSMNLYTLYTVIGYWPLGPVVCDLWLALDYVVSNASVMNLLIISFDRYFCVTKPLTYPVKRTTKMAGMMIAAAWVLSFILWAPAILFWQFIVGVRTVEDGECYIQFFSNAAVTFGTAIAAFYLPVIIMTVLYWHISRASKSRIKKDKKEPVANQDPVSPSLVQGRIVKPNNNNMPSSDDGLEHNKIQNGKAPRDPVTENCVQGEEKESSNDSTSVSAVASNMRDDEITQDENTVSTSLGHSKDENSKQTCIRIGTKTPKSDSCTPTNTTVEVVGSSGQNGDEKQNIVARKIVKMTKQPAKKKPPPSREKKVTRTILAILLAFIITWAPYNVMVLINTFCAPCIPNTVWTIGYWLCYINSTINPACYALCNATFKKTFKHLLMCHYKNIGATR
Text: (§1) Supplement jm3c00155_si_002.xlsx, sheet "SAFETYScan" | column: RC50 (uM); Max Response

HTR1A = target: T2, HTR1A (Homo sapiens, UniProt P08908); assay: SAFETYscan cAMP HTR1A Agonist; format: cell-based
T2 sequence (P08908 1-422): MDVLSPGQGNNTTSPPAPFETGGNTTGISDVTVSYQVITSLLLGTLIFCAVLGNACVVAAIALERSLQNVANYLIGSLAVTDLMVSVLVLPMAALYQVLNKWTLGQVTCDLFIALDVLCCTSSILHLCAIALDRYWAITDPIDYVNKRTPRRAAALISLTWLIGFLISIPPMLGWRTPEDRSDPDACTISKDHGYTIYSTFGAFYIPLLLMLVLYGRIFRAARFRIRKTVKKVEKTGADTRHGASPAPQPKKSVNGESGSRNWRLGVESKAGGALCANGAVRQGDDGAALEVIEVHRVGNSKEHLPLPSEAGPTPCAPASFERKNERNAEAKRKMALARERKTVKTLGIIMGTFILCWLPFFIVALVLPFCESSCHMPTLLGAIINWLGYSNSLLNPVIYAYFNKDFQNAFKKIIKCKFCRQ
Text: as §1

CHRM1 = target: T3, CHRM1 (Homo sapiens, UniProt P11229); assay: SAFETYscan Calcium Flux CHRM1 Antagonist; format: cell-based
T3 sequence (P11229 1-460): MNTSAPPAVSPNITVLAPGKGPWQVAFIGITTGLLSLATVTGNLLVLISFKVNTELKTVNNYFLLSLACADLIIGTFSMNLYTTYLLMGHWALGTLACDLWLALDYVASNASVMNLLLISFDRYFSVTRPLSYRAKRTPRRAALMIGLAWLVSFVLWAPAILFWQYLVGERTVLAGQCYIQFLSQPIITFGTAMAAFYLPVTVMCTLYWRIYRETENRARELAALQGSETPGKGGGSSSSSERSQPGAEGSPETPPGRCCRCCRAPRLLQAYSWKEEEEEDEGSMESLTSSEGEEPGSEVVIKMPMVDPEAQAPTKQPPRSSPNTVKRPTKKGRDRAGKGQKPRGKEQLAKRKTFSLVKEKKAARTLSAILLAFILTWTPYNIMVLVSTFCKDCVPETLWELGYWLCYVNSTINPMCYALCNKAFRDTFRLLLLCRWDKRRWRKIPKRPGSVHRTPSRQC
Text: as §1

SERT = SERT (Homo sapiens, UniProt P31645); assay: SAFETYscan Transporter SERT Blocker; format: cell-based
Sequence of SERT (P31645 whole entry, species assumed): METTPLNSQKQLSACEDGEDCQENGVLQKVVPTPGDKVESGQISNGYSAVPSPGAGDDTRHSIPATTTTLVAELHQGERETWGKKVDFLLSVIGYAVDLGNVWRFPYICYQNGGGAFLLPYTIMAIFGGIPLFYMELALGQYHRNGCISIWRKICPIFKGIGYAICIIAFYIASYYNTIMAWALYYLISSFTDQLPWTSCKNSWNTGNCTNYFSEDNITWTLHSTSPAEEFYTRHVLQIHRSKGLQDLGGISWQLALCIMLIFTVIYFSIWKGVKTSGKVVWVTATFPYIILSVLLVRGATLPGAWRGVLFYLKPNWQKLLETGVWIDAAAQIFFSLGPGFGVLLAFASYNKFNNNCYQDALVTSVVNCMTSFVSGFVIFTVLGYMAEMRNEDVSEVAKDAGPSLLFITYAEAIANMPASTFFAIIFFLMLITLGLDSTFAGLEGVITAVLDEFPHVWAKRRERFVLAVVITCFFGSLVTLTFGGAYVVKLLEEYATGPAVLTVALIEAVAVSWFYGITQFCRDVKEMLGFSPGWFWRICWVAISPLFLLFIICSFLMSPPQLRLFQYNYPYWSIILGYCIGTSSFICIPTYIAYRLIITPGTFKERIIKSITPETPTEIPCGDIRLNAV
Text: as §1

NAV1.5 = NAV1.5 (Homo sapiens, UniProt Q14524); assay: SAFETYscan Ion Channel NAV1.5 Blocker; format: cell-based
Text: as §1

HRH1 = HRH1 (Homo sapiens, UniProt P35367); assay: SAFETYscan Calcium Flux HRH1 Antagonist; format: cell-based
Sequence of HRH1 (P35367 whole entry): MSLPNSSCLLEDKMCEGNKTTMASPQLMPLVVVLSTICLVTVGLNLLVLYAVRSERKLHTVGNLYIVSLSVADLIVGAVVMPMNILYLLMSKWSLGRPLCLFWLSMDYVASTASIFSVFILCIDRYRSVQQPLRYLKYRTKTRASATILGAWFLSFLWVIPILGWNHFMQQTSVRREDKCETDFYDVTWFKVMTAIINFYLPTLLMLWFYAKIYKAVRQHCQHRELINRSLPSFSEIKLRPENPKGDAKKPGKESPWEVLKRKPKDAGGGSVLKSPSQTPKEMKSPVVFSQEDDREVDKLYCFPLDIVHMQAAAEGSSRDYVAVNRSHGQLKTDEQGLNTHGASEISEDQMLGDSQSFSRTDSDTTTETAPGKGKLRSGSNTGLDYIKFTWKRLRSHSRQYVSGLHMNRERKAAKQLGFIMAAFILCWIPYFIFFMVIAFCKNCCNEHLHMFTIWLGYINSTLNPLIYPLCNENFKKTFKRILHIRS
Text: as §1

VEGFR2 = VEGFR2 (Homo sapiens, UniProt P35968); assay: SAFETYscan Kinases Binding VEGFR2 Inhibitor
Sequence of VEGFR2 (P35968 20-1356): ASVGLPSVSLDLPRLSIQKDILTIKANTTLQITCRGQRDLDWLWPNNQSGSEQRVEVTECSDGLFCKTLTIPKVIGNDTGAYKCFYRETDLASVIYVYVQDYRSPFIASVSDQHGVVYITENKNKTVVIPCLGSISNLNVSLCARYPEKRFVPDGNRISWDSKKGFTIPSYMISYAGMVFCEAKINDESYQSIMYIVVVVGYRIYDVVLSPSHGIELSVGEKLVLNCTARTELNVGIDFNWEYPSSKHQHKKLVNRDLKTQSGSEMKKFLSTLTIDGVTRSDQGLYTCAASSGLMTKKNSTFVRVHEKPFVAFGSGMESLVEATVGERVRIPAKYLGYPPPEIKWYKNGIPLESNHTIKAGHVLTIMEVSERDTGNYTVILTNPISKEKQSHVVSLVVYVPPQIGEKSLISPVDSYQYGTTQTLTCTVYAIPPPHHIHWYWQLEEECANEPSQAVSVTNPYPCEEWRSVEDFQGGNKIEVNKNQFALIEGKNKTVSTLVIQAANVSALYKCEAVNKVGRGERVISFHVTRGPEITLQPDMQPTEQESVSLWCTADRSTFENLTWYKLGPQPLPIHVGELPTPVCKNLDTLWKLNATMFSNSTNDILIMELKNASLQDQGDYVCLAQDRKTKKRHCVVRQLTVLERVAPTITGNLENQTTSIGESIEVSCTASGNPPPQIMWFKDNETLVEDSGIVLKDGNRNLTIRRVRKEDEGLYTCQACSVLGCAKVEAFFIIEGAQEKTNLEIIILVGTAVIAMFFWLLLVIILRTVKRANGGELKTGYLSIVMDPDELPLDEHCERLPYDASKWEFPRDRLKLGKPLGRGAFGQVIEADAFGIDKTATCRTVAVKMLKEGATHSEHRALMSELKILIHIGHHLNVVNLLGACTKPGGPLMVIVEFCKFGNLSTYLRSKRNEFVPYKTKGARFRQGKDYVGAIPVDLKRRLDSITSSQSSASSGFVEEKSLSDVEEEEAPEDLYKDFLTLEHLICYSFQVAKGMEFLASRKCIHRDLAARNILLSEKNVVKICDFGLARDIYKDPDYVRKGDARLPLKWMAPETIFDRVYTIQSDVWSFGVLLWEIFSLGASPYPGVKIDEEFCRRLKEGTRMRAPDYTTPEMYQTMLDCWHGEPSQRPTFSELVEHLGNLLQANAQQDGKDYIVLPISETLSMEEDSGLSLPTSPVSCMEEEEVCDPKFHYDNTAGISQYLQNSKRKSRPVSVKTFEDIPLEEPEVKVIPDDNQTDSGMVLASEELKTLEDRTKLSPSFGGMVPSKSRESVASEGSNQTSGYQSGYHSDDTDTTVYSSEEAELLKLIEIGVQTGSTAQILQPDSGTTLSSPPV
Text: as §1

CNR2 = CNR2 (Homo sapiens, UniProt P34972); assay: SAFETYscan cAMP CNR2 Antagonist; format: cell-based
Sequence of CNR2 (P34972 whole entry): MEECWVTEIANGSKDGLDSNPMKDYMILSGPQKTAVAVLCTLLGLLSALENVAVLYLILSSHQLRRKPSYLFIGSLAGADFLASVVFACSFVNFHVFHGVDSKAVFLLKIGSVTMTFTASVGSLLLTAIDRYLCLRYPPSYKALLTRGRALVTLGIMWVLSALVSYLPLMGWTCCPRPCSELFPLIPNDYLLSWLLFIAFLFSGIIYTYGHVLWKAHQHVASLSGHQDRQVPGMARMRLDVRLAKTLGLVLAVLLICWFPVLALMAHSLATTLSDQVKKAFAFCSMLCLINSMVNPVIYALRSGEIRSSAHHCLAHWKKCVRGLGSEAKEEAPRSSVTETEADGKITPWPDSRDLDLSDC
Text: as §1

ADORA2A = ADORA2A (Homo sapiens, UniProt P29274); assay: SAFETYscan Calcium Flux ADORA2A Antagonist; format: cell-based
Sequence of ADORA2A (P29274 whole entry): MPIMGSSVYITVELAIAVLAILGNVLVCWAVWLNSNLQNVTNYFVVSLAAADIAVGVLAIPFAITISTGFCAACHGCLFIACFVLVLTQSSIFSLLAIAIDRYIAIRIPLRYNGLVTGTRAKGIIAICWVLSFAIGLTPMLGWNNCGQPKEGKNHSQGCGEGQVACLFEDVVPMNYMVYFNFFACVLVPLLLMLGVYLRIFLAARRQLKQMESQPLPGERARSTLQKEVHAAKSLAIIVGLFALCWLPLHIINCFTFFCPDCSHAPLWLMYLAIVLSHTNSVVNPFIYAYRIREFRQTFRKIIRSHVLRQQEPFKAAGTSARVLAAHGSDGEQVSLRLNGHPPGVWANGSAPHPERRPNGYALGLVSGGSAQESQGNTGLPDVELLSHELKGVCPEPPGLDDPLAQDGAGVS
Text: as §1

NMDAR (1A/2B) = NMDAR (1A/2B) (Homo sapiens, UniProt Q05586+Q13224); assay: SAFETYscan Ion Channel NMDAR (1A/2B) Opener; format: cell-based
Text: as §1

COX1 = COX1 (Homo sapiens, UniProt P23219); assay: SAFETYscan Enzymatic COX1 Inhibitor; format: biochemical
Sequence of COX1 (P23219 24-599): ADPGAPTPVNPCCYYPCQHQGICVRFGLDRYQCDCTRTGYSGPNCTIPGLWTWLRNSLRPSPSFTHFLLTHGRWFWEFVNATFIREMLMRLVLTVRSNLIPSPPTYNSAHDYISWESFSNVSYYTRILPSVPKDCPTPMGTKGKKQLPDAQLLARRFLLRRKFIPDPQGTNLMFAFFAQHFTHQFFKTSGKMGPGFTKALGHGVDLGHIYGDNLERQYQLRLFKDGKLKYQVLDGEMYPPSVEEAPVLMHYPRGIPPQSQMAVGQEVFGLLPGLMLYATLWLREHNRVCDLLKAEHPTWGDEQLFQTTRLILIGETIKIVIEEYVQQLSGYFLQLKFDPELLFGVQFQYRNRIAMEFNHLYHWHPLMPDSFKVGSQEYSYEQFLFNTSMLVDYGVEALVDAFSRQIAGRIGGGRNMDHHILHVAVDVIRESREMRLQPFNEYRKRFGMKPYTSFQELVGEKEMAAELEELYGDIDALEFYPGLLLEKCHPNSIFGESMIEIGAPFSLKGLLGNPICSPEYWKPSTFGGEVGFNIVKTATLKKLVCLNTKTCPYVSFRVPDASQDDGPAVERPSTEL
Text: Supplement jm3c00155_si_002.xlsx, sheet "SAFETYScan" | column: RC50 (uM); Hill; Max Response

Cn1c(=O)c2c(c3cc(Nc4ccnc(F)c4Cl)ccc31)N[C@@H](C1CC1)C(F)(F)CO2 [compound 17, (S)-10-((3-chloro-2-fluoropyridin-4-yl)amino)-2-cyclopropyl-3,3-difluoro-7-methyl-1,2,3,4-tetrahydro-[1,4]oxazepino[2,3-c]quinolin-6(7H)-one]
IC50 (CHRM2): > 10 µM
Emax (CHRM2; CHRM2, cAMP, Antagonist, read-out: Max Response): 0%
EC50 (HTR1A): > 10 µM
Emax (HTR1A; HTR1A, cAMP, Agonist, read-out: Max Response): 45.6%
IC50 (CHRM1): > 10 µM
Emax (CHRM1; CHRM1, Calcium Flux, Antagonist, read-out: Max Response): 1.21%
IC50 (SERT): > 10 µM
Emax (SERT; SERT, Transporter, Blocker, read-out: Max Response): 0%
IC50 (NAV1.5): > 10 µM
Emax (NAV1.5; NAV1.5, Ion Channel, Blocker, read-out: Max Response): 2.06%
Emax (HRH1; read-out: Max Response): 14.2%
IC50 (HRH1; read-out: RC50 (IC50)): > 10 µM
Emax (VEGFR2; read-out: Max Response): 0%
IC50 (VEGFR2; read-out: RC50 (IC50)): > 10 µM
IC50 (CNR2): > 10 µM
Emax (CNR2; CNR2, cAMP, Antagonist, read-out: Max Response): 0%
Emax (ADORA2A; read-out: Max Response): 10.4%
IC50 (ADORA2A; read-out: RC50 (IC50)): > 10 µM
EC50 (NMDAR (1A/2B)): > 10 µM
Emax (NMDAR (1A/2B); NMDAR (1A/2B), Ion Channel, Opener, read-out: Max Response): 0.2%
Hill (COX1): 3.28
Emax (COX1; read-out: Max Response): 93.1%
IC50 (COX1; read-out: RC50 (IC50)): 4.54 µM

From publication PMC10150366, “Discovery of an In Vivo Chemical Probe for BCL6 Inhibition by Optimization of Tricyclic Quinolinones” (Journal of Medicinal Chemistry, 2023)
